This is an account of results in ChEMBL document CHEMBL1148189, “New diterpenes from the gorgonian Solenopodium excavatum” (1993).

Converted amounts (≈) assume the structure as drawn. The source made the active and inactive calls. The rule behind the calls is not given here.

For the first assay, the system named is P388. The assay is described as follows: Cytotoxicity against mouse P388 cells. The class given is functional.
Conditions: not given
Regarding `CC(=O)O[C@H]1C[C@@H](OC(C)=O)/C(C)=C\[C@@H]2OC(=O)[C@]3(C)O[C@]23[C@H](OC(C)=O)[C@H]2[C@@](C)(O)[C@H](OC(C)=O)C=C[C@]12C`, the outcome was inactive.

As to `CC(=O)O[C@@H]1[C@H]2[C@@H](C)[C@@H](O)[C@@H](O)[C@H](OC(C)=O)[C@]2(C)[C@@H](OC(C)=O)[C@H](OC(C)=O)C/C(C)=C\[C@@H]2OC(=O)[C@]3(C)O[C@@]213`, the outcome was inactive. `CCCC(=O)O[C@@H]1C/C(C)=C\[C@@H]2OC(=O)[C@]3(C)O[C@]23[C@H](OC(C)=O)[C@H]2[C@@]3(C)O[C@H]3[C@@H](O)[C@H](OC(C)=O)[C@]2(C)[C@H]1OC(C)=O`: the outcome was inactive. As for `CC(=O)OC/C1=C/[C@@H]2OC(=O)[C@]3(C)O[C@]23[C@H](OC(C)=O)[C@H]2[C@@]3(C)O[C@H]3C[C@H](OC(C)=O)[C@]2(C)[C@@H](OC(C)=O)C[C@H]1OC(C)=O`, the result was inactive.

Take `CC(=O)O[C@@H]1[C@@H]2O[C@]2(C)[C@@H]2[C@@H](OC(C)=O)[C@]34O[C@@]3(C)C(=O)O[C@H]4/C=C(/C)C[C@@H](OC(C)=O)[C@H](OC(C)=O)[C@@]2(C)[C@H]1OC(C)=O`: the result was inactive. For `CC(=O)O[C@@H]1[C@H]2[C@@]3(C)O[C@H]3[C@@H](O)[C@H](OC(C)=O)[C@]2(C)[C@@H](OC(C)=O)[C@H](OC(C)=O)C/C(C)=C\[C@@H]2OC(=O)[C@]3(C)O[C@@]213`, the outcome was inactive.

As to `CC(=O)O[C@H]1C[C@@H]2O[C@]2(C)[C@@H]2[C@@H](OC(C)=O)[C@]34O[C@@]3(C)C(=O)O[C@H]4/C=C(/CO)[C@H](OC(C)=O)C[C@H](OC(C)=O)[C@@]12C`, the result was inactive. Turning to `CC(=O)O[C@@H]1[C@H]2C(C)=C[C@@H](O)[C@H](OC(C)=O)[C@]2(C)[C@@H](OC(C)=O)[C@H](OC(C)=O)C/C(C)=C\[C@@H]2OC(=O)[C@]3(C)O[C@@]213`, the result was inactive.

Still in this assay, the particulars now being: read-out: ED50 (the source's name).
For `CCCC(=O)O[C@@H]1C/C(C)=C\[C@@H]2OC(=O)[C@]3(C)O[C@]23[C@H](OC(C)=O)[C@H]2C(C)=C[C@@H](O)[C@H](OC(C)=O)[C@]2(C)[C@H]1OC(C)=O` [STECHOLIDE I], the EC50 turned out to be 23 µg/mL (≈ 38.8 µM).
